{
  "source": "patent US9427433B2",
  "about": "“Methods and compositions for enhancing fertility and/or inhibiting pregnancy failure and restoring glucose tolerance” (Queen's University at Kingston, priority 2011, dated 2016)",
  "key": {"[1]": {"test_system": "NZO mice fed a high fat diet", "test": "Fasting serum glucose, fasting serum insulin and glucose tolerance, comparison of macrolides", "assay_type": "in vivo, mouse", "method": "(§1) Female mice were administered tacrolimus (0.1 mg/kg or 0.05 mg/kg, n=6/group), vehicle (n=10), pimecrolimus (0.1 mg/kg, n=6) or sirolimus (0.1 mg/kg, n=6) subcutaneously every other day for 3 weeks.\n(§2) For the comparative evaluation of other macrolide drugs to tacrolimus, mice starting at 7 weeks of age were maintained on the high fat diet for a total of 13 weeks of study period. Mice were entered into the experiments when determined to be glucose intolerant as described above. Methods of drug administration and other experimental methods were as described above.\nGlucose Tolerance Test (GTT): was performed according to standard protocol (Ayala et al 2010). Briefly, basal glucose levels were measured for conscious mice individually caged in 1000 cc plastic mouse caging using a one-touch ultra glucose strips and meter (Acqui-check Aviva, Roche, Montreal, Canada) and approximately 30 microliters of blood obtained via tail venipuncture prior to fasting for six hours in cages equipped with hardwood bedding. Fasting blood glucose was recorded at the end of the six hours fasting period. Mice were then tested for oral glucose tolerance (OGTT) or for insulin sensitivity (Si). For OGTT alert mice were then given 20% D-glucose (2 g/kg body weight) sterile syrup administered orally. For Si experiments mice were given 20% D-glucose (2 g/kg body weight) sterile syrup by intraperitoneal administration through a 1 ml D29 gage “½” insulin syringe (Fisher Scientific, Montreal, Canada). Then after, blood glucose was recorded at 15, 30, 45, 60, 90 and 120 minutes respectively. For Si experiments blood glucose was determined only at 15 minutes. Glucose tolerance graphs were generated by blotting mean±standard error of the mean (SEM) of the recorded glucose data per mouse per minute collection time. One way analysis of variance (ANOVA) followed by student t-test was performed to determine alpha values for statistical differences among mean blood glucose values across experimental mice groups.\nFasting immuno-reactive mouse insulin levels were quantitatively determined in citrated platelet-free plasma samples obtained from 6 hours-fasting mice using an Ultrasensitive mouse Insulin Eliza kit (#90080, Crystal chem., IL, USA) according to the manufacturer instructions. Briefly, platelet-free plasma were isolated from freshly obtained citrated whole blood samples of fasting mice and the provided insulin standards were incubated overnight on a shaking platform at 4 C^0 in a 96 wells plate coated with Guinea pig anti-insulin. Afterwards, unbound sample materials were thoroughly washed with the supplied wash buffers and the bound guinea pig anti-insulin/mouse insulin complex immobilized to the microplate wells were incubated with Horseradish peroxidase (HRP)-conjugated anti-insulin antibody for 40 minutes at room temperature with continuous agitation. Excess unbound HRP-conjugated anti-insulin antibodies were then washed excessively with wash buffers and the HRP-mediated color reaction was developed with the addition of 3,3′,5,5′ tetramethylbenzidine (TMB) substrate solution. The amount of insulin (ng/ml) present in the test samples were then measured via interpolation using the standard curve generated by plotting absorbance (at A^0450-A^0635) versus the corresponding concentration of a wide range (0.1-12.8 ng/ml) of mouse insulin standards according to the provider's instructions. Graphic representation of differences in mean±sem of plasma insulin among different groups of mice were blotted using Prism5 (La Jolla, Calif., USA) software and statistically significant differences (at 95% confidence) were calculated for the different test groups of mice using one way ANOVA followed by Bonferroni modified student t-test comparing differences between individual experimental groups."}, "[2]": {"test_system": "female NZO mice fed a continuous high fat diet", "test": "Weight loss, comparison of macrolides", "assay_type": "in vivo, mouse", "settings": "tacrolimus 0.05 or 0.1 mg/kg, pimecrolimus 0.1 mg/kg, sirolimus 0.1 mg/kg s.c. every other day for three weeks; vs vehicle", "excerpt": "as §2"}, "[3]": {"test_system": "high fat fed female NZO mice", "test": "Ovarian histology of macrolide-treated chronically high fat fed NZO mice", "assay_type": "in vivo, mouse", "settings": "chronically high fat diet fed NZO mice", "method": "Statistical differences between groups were measured by two-way analysis of variance (ANOVA) followed by Bonferroni post-hock t-test comparing effect of all tested macrolides on mean follicular structure counts/unit area at 95% confidence. Scale bars=200 μm for B, D, F, G, H, I, J and 50 μm for A, C, E. N=10 (HFD-NZO), 6 per treatment group. A, C and E are higher magnifications of B, D and F respectively. * denoting ovarian cyst(s).\nas §2"}, "[4]": {"test_system": "NZO mice fed a high fat diet", "test": "Implantation rate and resorption, comparison of macrolides", "assay_type": "in vivo, mouse", "settings": "vs vehicle", "method": "as §2\nPeri-implantation (E4.5) and post-implantation (E6.5) pregnant and/or pseudopregnant (E4.5bid and E6.5bid) mouse uteri were prepared after mating respectively with fertile and/or vasectomized males as previously described (Herington et al. Endocrinol 2009 150: 4404-4413). The morning of vaginal plug detection was considered as gestational day 0.5 (E0.5 or Gd.0.5). An average number of twenty Concanavalin A(ConA)-coated sepharose beads (average size of 0.1 mm-diameter) (Sigma-Aldrich, Burlington, Ontario, Canada) was injected into the lumen of the left uterine horn of anesthetized animals between hours 13:00 and 16:00 on day 2.5 of pseudopregnancy according to the procedure described by Herington et al. (Endocrinol, 2009 150: 4404-4413). With the use of Ketamine/Xyalzine anesthesia and cardiac puncture, all animals were sacrificed at the age of 16-18 weeks between the morning hours 09:00-11:00. Pregnant and pseudopregnant mice were sacrificed in the morning of days 4.5 and 6.5 of their respective pregnancy. Blood samples were collected from all animals and were let stand for 1 hour at room temperature before isolation of the serum. Serum samples were stored at −80° C. until they were analyzed for their steroid hormones and lipid contents by appropriate laboratory procedures such as radio-immunoassay (RIA) all of which were conducted at the Department of Clinical Chemistry (Kingston General Hospital, Kingston, Ontario, Canada). Ovaries, oviducts and uteri were carefully dissected out of carcasses and were placed in ice-cold phosphate buffered saline (PBS)-containing petri dishes. Under a dissecting microscope, uteri were carefully isolated from their attached uterine tubes, trimmed of all mesenteric fat and were immediately weighed. The numbers of corpora lutea and implantation sites (viable and resorbed) were counted, respectively, from E4.5 and E6.5 pregnant mouse ovaries and uteri. For protein and RNA extraction, virgin uteri and segments of uterine horns containing inter-implantation sites of pregnant and pseudopregnant uteri were transected and snapped frozen in liquid nitrogen.\nExamination of external morphological features of uteri of pregnant mice, including counts of implantation sites and photography was performed using a computerized dissecting microscope (Leica Diagnostic Instruments, USA) and the image acquisition and analytic software (SPOT 2.2.0). Percentage of peri-implantation embryo loss was calculated as described by Bindali and Kaliwal (Ind. Health, 2002 40:191-197), using the formula: % Preimplantation loss=[Total number of corpora lutea−Total number of implantation]/Total number of corpora lutea. Immunohistochemical localization and assessment of microscopic morphological features of implantation and inter-implantation sites in normoglycemic and diabetic NOD mice were performed on methacarn (60% methanol, 30% chloroform and 10% acetic acid)-fixed specimens. […]"}, "[5]": {"test_system": "type 2 diabetes NZO mouse model", "test": "HOMA-IR, HOMA-B and insulin sensitivity index (Si)", "assay_type": "in vivo", "method": "as §1\nHOMA IR=fasting glucose (mmol/L)×fasting insulin ([…])/22.5 according to the method of Bonora E et al., 2000. Pancreatic β-Cell function (HOMA-B) was calculated according to the method of Tresaco B et al., 2005, HOMA-B=[20×[…]). Insulin sensitivity (Si) was determined according to the method of Matthews D et al., 1985. Si=[basal glucose]−[glucose 15 min]/15)."}, "[6]": {"settings": "0.1 mg/kg s.c. every other day for 3 weeks, vs vehicle"}},
  "data": [
    {"smiles": "CC[C@@H]1/C=C(\\C)C[C@H](C)C[C@H](OC)[C@H]2O[C@@](O)(C(=O)C(=O)N3CCCC[C@H]3C(=O)O[C@H](/C(C)=C/[C@@H]3CC[C@H](Cl)[C@H](OC)C3)[C@H](C)[C@@H](O)CC1=O)[C@H](C)C[C@@H]2OC", "note": "[pimecrolimus]", "values": [
      {"measurement": "fasting basal serum glucose", "setting": "[1]; [6]", "result": "maintained low fasting basal serum glucose and insulin levels"},
      {"measurement": "fasting basal serum insulin", "setting": "[1]; [6]", "result": "maintained low fasting basal serum glucose and insulin levels"},
      {"measurement": "glucose intolerance", "setting": "[1]; 0.1 mg/kg, FIG. 17C, p=0.0001", "result": "significantly reduced glucose intolerance although to a lesser degree than tacrolimus"},
      {"measurement": "insulin secretion in response to a hyperglycemic challenge", "setting": "[1]; tacrolimus 0.1 or 0.05 mg/kg, pimecrolimus 0.1 mg/kg, sirolimus 0.1 mg/kg s.c. every other day for 3 weeks, vs vehicle", "result": "significantly improved insulin secretion"},
      {"measurement": "weight loss", "setting": "[2]", "result": "induced statistically significant weight loss"},
      {"measurement": "follicular growth pattern in the ovaries", "setting": "[3]", "result": "restored follicular growth pattern"},
      {"measurement": "ovarian cyst formation", "setting": "[3]; p<0.001", "result": "inhibited the development of ovarian cysts"},
      {"measurement": "ovarian follicular atresia", "setting": "[3]; vs untreated HFD-NZO", "result": "significantly inhibited ovarian follicular atresia (p<0.01)"},
      {"measurement": "embryonic and fetal absorption rate", "setting": "[4]; same treatments, p<0.05", "result": "significantly reduced embryonic and fetal absorption rate"},
      {"measurement": "implantation rate", "setting": "[4]; tacrolimus 0.05 and 0.1 mg/kg, pimecrolimus 0.1 mg/kg, sirolimus 0.1 mg/kg s.c. every other day for three weeks", "result": "significantly improved implantation rate (p<0.05)"},
      {"measurement": "insulin resistance (HOMA-IR)", "setting": "[5]; p<0.001 vs vehicle", "result": "significantly reduced insulin resistance"},
      {"measurement": "insulin sensitivity (Si)", "setting": "[5]; p<0.01 vs vehicle", "result": "enhanced insulin sensitivity"},
      {"measurement": "pancreatic β-cell function (HOMA-B)", "setting": "[5]; p<0.05 vs vehicle", "result": "enhanced pancreatic β-cell function"}
    ]}
  ]
}
